According to the NIST ThermoML archive (doi:10.1016/j.jct.2013.06.003):
Values joined by “and” are separate entries in the source; they are usually repeats but may differ in a detail not shown here. Equal values may be shown once. Numbers after ± are expanded uncertainties.

Assays:
[1] = Crystal; for vapor or sublimation pressure: Calculated from knudsen effusion weight loss; for Normal melting temperature: DTA
[2] = Molar enthalpy of transition or fusion; conditions: Crystal; DSC

## N#Cc1cccc(I)c1 [3-iodobenzonitrile]
[1]; 276.18 K
  vapor or sublimation pressure: 9.88e-05 ± 5e-06 kPa and 0.0001 ± 5e-06 kPa and 9.93e-05 ± 5e-06 kPa
[1]; 278.16 K
  vapor or sublimation pressure: 0.000122 ± 6e-06 kPa and 0.000125 ± 6e-06 kPa and 0.000123 ± 6e-06 kPa
[1]; 280.26 K
  vapor or sublimation pressure: 0.000161 ± 8e-06 kPa and 0.00016 ± 8e-06 kPa and 0.000163 ± 8e-06 kPa
[1]; 282.15 K
  vapor or sublimation pressure: 0.000204 ± 1e-05 kPa and 0.000206 ± 1e-05 kPa and 0.000207 ± 1e-05 kPa
[1]; 284.15 K
  vapor or sublimation pressure: 0.000269 ± 1.3e-05 kPa
[1]; 286.17 K
  vapor or sublimation pressure: 0.00034 ± 1.7e-05 kPa and 0.000339 ± 1.7e-05 kPa and 0.000336 ± 1.7e-05 kPa
[1]; 288.17 K
  vapor or sublimation pressure: 0.000437 ± 2.2e-05 kPa and 0.000432 ± 2.2e-05 kPa and 0.000441 ± 2.2e-05 kPa
[1]; 290.14 K
  vapor or sublimation pressure: 0.000539 ± 2.7e-05 kPa and 0.000537 ± 2.7e-05 kPa and 0.00054 ± 2.7e-05 kPa
[1]; 292.13 K
  vapor or sublimation pressure: 0.00069 ± 3.5e-05 kPa and 0.000686 ± 3.4e-05 kPa and 0.000699 ± 3.5e-05 kPa
[1]; 294.21 K
  vapor or sublimation pressure: 0.000869 ± 4.4e-05 kPa and 0.000876 ± 4.4e-05 kPa and 0.000882 ± 4.4e-05 kPa
[1]; 296.14 K
  vapor or sublimation pressure: 0.0011 ± 0.00011 kPa and 0.00111 ± 0.00011 kPa
[1]
  Normal melting temperature: 40.12 ± 0.39 °C
[2]
  Molar enthalpy of transition or fusion: 3.61 ± 0.311 kcal/mol

## N#Cc1ccccc1Br [2-bromobenzonitrile]
[1]
  Normal melting temperature: 54.0 ± 0.7 °C
[2]
  Molar enthalpy of transition or fusion: 4.11 ± 0.167 kcal/mol

## N#Cc1ccc(Br)cc1 [4-bromobenzonitrile]
[2]
  Molar enthalpy of transition or fusion: 4.95 ± 0.263 kcal/mol

## N#Cc1ccccc1I [2-iodobenzonitrile]
[1]; 283.19 K
  vapor or sublimation pressure: 0.000104 ± 5e-06 kPa and 0.000103 ± 5e-06 kPa and 0.000101 ± 5e-06 kPa
[1]; 285.15 K
  vapor or sublimation pressure: 0.000128 ± 6e-06 kPa and 0.000129 ± 6e-06 kPa and 0.000125 ± 6e-06 kPa
[1]; 287.17 K
  vapor or sublimation pressure: 0.00016 ± 8e-06 kPa and 0.000159 ± 8e-06 kPa and 0.000168 ± 8e-06 kPa
[1]; 288.91 K
  vapor or sublimation pressure: 0.000199 ± 1e-05 kPa and 0.000205 ± 1e-05 kPa
[1]; 291.13 K
  vapor or sublimation pressure: 0.000263 ± 1.3e-05 kPa and 0.000257 ± 1.3e-05 kPa and 0.000268 ± 1.3e-05 kPa
[1]; 293.15 K
  vapor or sublimation pressure: 0.000336 ± 1.7e-05 kPa and 0.000341 ± 1.7e-05 kPa and 0.000346 ± 1.7e-05 kPa
[1]; 295.15 K
  vapor or sublimation pressure: 0.000419 ± 2.1e-05 kPa and 0.000414 ± 2.1e-05 kPa and 0.000427 ± 2.1e-05 kPa
[1]; 297.15 K
  vapor or sublimation pressure: 0.000521 ± 2.6e-05 kPa and 0.000547 ± 2.7e-05 kPa
[1]; 299.12 K
  vapor or sublimation pressure: 0.000651 ± 3.3e-05 kPa and 0.00066 ± 3.3e-05 kPa and 0.000671 ± 3.4e-05 kPa
[1]; 301.15 K
  vapor or sublimation pressure: 0.000857 ± 4.3e-05 kPa and 0.000861 ± 4.3e-05 kPa and 0.000864 ± 4.3e-05 kPa
[1]; 303.17 K
  vapor or sublimation pressure: 0.00103 ± 0.0001 kPa
[1]
  Normal melting temperature: 53.54 ± 0.39 °C
[2]
  Molar enthalpy of transition or fusion: 3.97 ± 0.311 kcal/mol

## N#Cc1ccc(I)cc1 [4-iodobenzonitrile]
[1]; 294.17 K
  vapor or sublimation pressure: 0.000111 ± 6e-06 kPa and 0.000109 ± 5e-06 kPa and 0.00011 ± 6e-06 kPa
[1]; 296.2 K
  vapor or sublimation pressure: 0.000141 ± 7e-06 kPa and 0.000143 ± 7e-06 kPa
[1]; 298.18 K
  vapor or sublimation pressure: 0.000182 ± 9e-06 kPa
[1]; 300.18 K
  vapor or sublimation pressure: 0.000226 ± 1.1e-05 kPa and 0.000228 ± 1.1e-05 kPa and 0.000223 ± 1.1e-05 kPa
[1]; 302.26 K
  vapor or sublimation pressure: 0.000294 ± 1.5e-05 kPa and 0.000296 ± 1.5e-05 kPa
[1]; 304.29 K
  vapor or sublimation pressure: 0.000353 ± 1.8e-05 kPa and 0.000365 ± 1.8e-05 kPa and 0.000368 ± 1.8e-05 kPa
[1]; 306.28 K
  vapor or sublimation pressure: 0.000452 ± 2.3e-05 kPa and 0.000454 ± 2.3e-05 kPa and 0.000444 ± 2.2e-05 kPa
[1]; 308.2 K
  vapor or sublimation pressure: 0.000562 ± 2.8e-05 kPa and 0.000563 ± 2.8e-05 kPa and 0.000565 ± 2.8e-05 kPa
[1]; 310.15 K
  vapor or sublimation pressure: 0.000715 ± 3.6e-05 kPa and 0.000717 ± 3.6e-05 kPa and 0.000701 ± 3.5e-05 kPa
[1]; 312.16 K
  vapor or sublimation pressure: 0.000889 ± 4.5e-05 kPa and 0.000882 ± 4.4e-05 kPa
[1]; 314.05 K
  vapor or sublimation pressure: 0.00108 ± 0.00011 kPa and 0.00106 ± 0.00011 kPa
[1]
  Normal melting temperature: 125.46 ± 0.39 °C
[2]
  Molar enthalpy of transition or fusion: 5.64 ± 0.263 kcal/mol

## N#Cc1cccc(Br)c1 [3-bromobenzonitrile]
[2]
  Molar enthalpy of transition or fusion: 3.97 ± 0.454 kcal/mol
